{"source": "patent US9789044B2", "about": "“Compounds and methods for repelling blood-feeding arthropods and deterring their landing and feeding” (SCOTTS CANADA LTD, priority 2008, dated 2017)", "key": {"Aedes aegypti [1]": {"test_system": "Aedes aegypti", "test": "General bioassay: treated human forearm in cage with host-seeking female mosquitoes, complete protection time (modified WHO 1996 protocol)", "format": "in vivo", "settings": "10% formulation in mineral oil, 1.5 mg (total composition) per cm^2 on human forearm skin", "description": "A black-eyed Liverpool strain of Aedes. aegypti was obtained from Dr. Carl Lowenberger, Simon Fraser University (SFU). Insects were reared under standardized conditions (60-70% relative humidity, 26-28° C., 14 h light:10 h dark photoperiod) in SFU's insectary. Neonate larvae that hatched in glass dishes of sterilized hypoxic water were transferred to trays of distilled water provisioned with Nutrafin® Basix Staple Food fish diet. Pupae were collected daily and separated by sex, and 15 females and 10 males were placed in a paper cup (7.5 cm diameter, 8.5 cm high) with a mesh lid. Emergent adults were fed a 10% (w/v) sucrose solution via braided cotton dental rolls. Arm-fed gravid females were offered water-containing paper cups, lined with paper-towel as an oviposition substrate. Candidate repellents and deterrents were bioassayed according to a modified protocol from the World Health Organization (1996). At least 1 hour prior to each bioassay, 75 host-seeking non blood-fed, nulliparous, 5- to 8-day-old female Aedes aegypti were placed into a wood-framed cage (26.5 cm on each side and 42.5 cm high) with a wooden floor, screened mesh sides and top, and a clear acrylic front fitted with a cotton stockinette sleeve (10 cm diameter). […] The time elapsed from experiment initiation to first bite was recorded as deterrent failure or complete protection time. […]"}, "Anopheles gambiae": {"test_system": "Anopheles gambiae", "settings": "by itself or in combination with an adjuvant; cited from earlier work"}, "Culex quinquefasciatus": {"test_system": "Culex quinquefasciatus", "settings": "by itself or in combination with an adjuvant; cited from earlier work"}, "Aedes aegypti [2]": {"test_system": "Aedes aegypti", "settings": "by itself or in combination with an adjuvant; cited from earlier work"}, "mosquitoes": {"test_system": "mosquitoes", "settings": "in vivo; cited from earlier work"}}}
{"smiles": "C=CCSCCCCCCCCO", "note": "[8-allylsulfanyl-1-octanol]", "values": [{"measurement": "average duration of protection from bites by Aedes aegypti", "setting": "Aedes aegypti [1]; Experiments 1-6, 3-4 replicates", "value": 123, "unit": "min"}, {"measurement": "deterring biting, effectiveness relative to DEET", "setting": "Anopheles gambiae", "value": "more effective than DEET"}, {"measurement": "deterring biting, effectiveness relative to DEET", "setting": "Culex quinquefasciatus", "value": "more effective than DEET"}, {"measurement": "deterring biting, effectiveness relative to DEET", "setting": "Aedes aegypti [2]", "value": "more effective than DEET"}, {"measurement": "repellency to mosquitoes", "setting": "mosquitoes", "value": "repellent"}]}
{"smiles": "C=CCSCCCCCCC(C)O", "note": "(centres unmarked) [8-allylsulfanyloctan-2-ol]", "values": [{"measurement": "repellency to mosquitoes", "setting": "mosquitoes", "value": "repellent"}]}
{"smiles": "C=CCSCCCCCCCCCO", "note": "[9-allylsulfanylnonan-1-ol]", "values": [{"measurement": "repellency to mosquitoes", "setting": "mosquitoes", "value": "repellent"}]}
{"smiles": "C=CCSCCCCCCCC(=O)N(CC)CC", "note": "[(N,N)-diethyl-8-allylsulfanyl-octanamide]", "values": [{"measurement": "average duration of protection from bites by Aedes aegypti", "setting": "Aedes aegypti [1]; Experiment 7, 4 replicates", "value": 156, "unit": "min"}]}
